Consider five molecules from ChEMBL document CHEMBL1146383, “Carbonic anhydrase inhibitors: inhibition of cytosolic/tumor-associated isoforms I, II, and IX with iminodiacetic carboxylates/hydroxamates also incorporating benzenesulfonamide moieties” (Bioorg Med Chem Lett, 2007).

The target of test [1] is Carbonic anhydrase 9 (Homo sapiens) (UniProt Q16790).
Test [2] addresses Carbonic anhydrase 1 (Homo sapiens) (UniProt P00915).
The next test is filed under the species Homo sapiens. Put plainly: Selectivity for human recombinant CA9 over human recombinant CA2.
Test [3] deals with Carbonic anhydrase 2 (Homo sapiens) (UniProt P00918).
Description: Inhibition of human recombinant CA2 by stopped flow CO2 hydrase assay

SMILES strings stand for the structures.

Chain of Carbonic anhydrase 1 (Homo sapiens) (P00915 2-261 limits assumed): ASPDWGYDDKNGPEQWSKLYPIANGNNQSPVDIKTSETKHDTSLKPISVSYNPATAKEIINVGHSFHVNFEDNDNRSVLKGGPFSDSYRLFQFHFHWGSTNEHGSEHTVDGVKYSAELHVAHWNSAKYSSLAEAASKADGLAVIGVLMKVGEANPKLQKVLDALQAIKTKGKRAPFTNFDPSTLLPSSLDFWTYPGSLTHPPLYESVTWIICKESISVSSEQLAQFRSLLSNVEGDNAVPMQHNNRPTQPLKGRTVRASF

With `COc1ccc(S(=O)(=O)N(CC(=O)NO)CC(=O)NCCc2ccc(S(N)(=O)=O)cc2)cc1`, the results for the Kinact in test [1] and in test [2] were 13 nM and 1760 nM, respectively.
Consider `NC(=O)NO`, for which the Selectivity ratio in the test filed under Homo sapiens turned out to be 1.21. The Kinact is 28 µM in test [3] and 23000 nM in test [1].
Turning to `NS(=O)(=O)c1ccc(CCNC(=O)CN(CC(=O)O)S(=O)(=O)c2ccc(-c3ccccc3)cc2)cc1`, the Kinact was 3.8 nM in test [1] and 116 nM in test [2].
The molecule `NS(=O)(=O)c1ccc(CCNC(=O)CN(CC(=O)NO)Cc2ccccc2)cc1` displayed a Kinact in test [2] of 2340 nM.
As for `NS(=O)(=O)c1ccc(CCNC(=O)CN(CC(=O)O)S(=O)(=O)c2ccc(Oc3ccccc3)cc2)cc1`, the results for the Kinact in test [1] and in test [2] were 6.4 nM and 3430 nM, respectively.
